Source: patent publication US20110183978A1, “Phenylpyri(mi)dinylazoles” (Bayer CropScience AG, priority 2009, published 2011)
Where two headings read alike, the source gives them in different places.

Tests used:
[1] = system: Fusarium proliferatum; assay: Example I: production of fumonisin FB1 by Fusarium proliferatum (microtitre plates); type: cell-based; conditions: 120 h
[2] = physchem
[3] = system: Fusarium graminearum; assay: microbe, parasite or virus in culture; type: cell-based
[4] = system: Sphaerotheca fuliginea; assay: Example L: in vivo test on Sphaerotheca fuliginea (powdery mildew on cucumber/protective); conditions: Podosphaera fuliginea, 168 h, cucumber, protective, assessment 7 days after inoculation, read-out: % Wirkungsgrad
Experimental: Solvent: 49 parts by weight N,N-dimethylformamide Emulsifier: 1 part by weight alkylaryl polyglycol ethers For the preparation of a suitable active substance preparation, 1 part by weight of active substance is mixed with the stated quantities of solvent and emulsifier and the concentrate is diluted to the desired concentration with water. For the testing for protective activity, young cucumber plants are sprayed with the active substance preparation at the stated application dosage. One day after the treatment, the plants are inoculated with a spore suspension of Sphaerotheca fuliginea. Next, the plants are placed in a greenhouse at 70% relative atmospheric humidity and a temperature of 23° C. 7 days after the inoculation, the assessment takes place.

[5] = system: Alternaria solani; assay: Example M: in vivo test on Alternaria solani (leaf blotch disease/tomato/protective); conditions: 168 h, tomato, protective, 500 ppm active substance, assessed 7 days after inoculation, read-out: % Wirkungsgrad (activity level)
Summary of the method: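 Alternaria solani infection on tomato scored 7 days post-inoculation. Before inoculation, young plants received a protective spray at the stated application dose; formulation was compound mixed with N,N-dimethylformamide and emulsifier, water-diluted.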

[6] = 72 h, read-out: % Inhibition des Pilzwachstums bei 50 μM
[7] = 168 h, read-out: % Inhibition der DON/AcDON produktion bei 50 μM

SMILES | inhibition at 50 µM ([1]; Fusarium proliferatum growth, OD 620, 5 days, read-out: % Inhibition des Pilzwachstums bei 50 μM) [%] | inhibition at 50 µM ([1]; Fusarium proliferatum, 5 days at 20° C., HPLC-MS/MS, read-out: % Inhibition der FB1 produktion bei 50 μM) [%] | chromatographic logP ([2]; LogPA (logP of the stated pure compound or, in a mixture, of the main isomer, 1-substituted 3-aryl-1H-pyrazole)) | inhibition at 50 µM [3, 6] [%] | inhibition at 50 µM [3, 7] [%] | pest or weed control at 500 ppm [4] [%] | pest or weed control at 500 ppm [5] [%] | chromatographic logP ([2]; LogPA)
FC(F)(F)c1cccc(-c2nn(C3CCCCO3)cc2-c2ccnc3[nH]ccc23)c1 (centres unmarked) [Compound 50] | 8 | 89 | 2.93 |  |  |  |  | 
CCC(=O)Nc1cc(-c2cn(OC(C)C)nc2-c2ccc(F)cc2)ccn1 [Compound 226] |  |  |  | 85 | 100 | 95 | 95 | 2.58
CC(C)Cn1cc(-c2ccncc2-c2cccc(F)c2)c(-c2ccc(F)cc2)n1 [Compound 229] |  |  |  | 0 | 97 | 94 | 95 | 3.13
CC(C)C(=O)Nc1cc(-c2cn(C(C)c3ccccc3F)nc2-c2ccc(F)cc2)ccn1 (centres unmarked) [Compound 232] |  |  |  | 0 | 80 | 93 | 95 | 3.41
CC(C)n1cc(-c2ccnc(NC(=O)N(C)C)c2)c(-c2ccc(F)cc2)n1 [Compound 233] |  |  |  | 100 | 100 | 95 | 90 | 1.6
COCC(=O)Nc1cc(-c2cn(CC3CC3(Cl)Cl)nc2-c2ccc(F)cc2)ccn1 (centres unmarked) [Compound 245] |  |  |  | 95 | 99 | 88 | 94 | 3.22
Cn1nc(-c2ccc(F)cc2O)c(-c2ccnc(NC(=O)C3CC3)c2)c1OC(F)F [Compound 258] |  |  |  | 79 | 98 | 80 | 95 | 2.22
CCOC(=O)Nc1cc(-c2cn(CC(C)C)nc2-c2ccc(F)cc2)ccn1 [Compound 267] |  |  |  | 59 | 97 | 98 | 95 | 3.11
CCC(=O)Nc1cc(-c2cn(CCSC)nc2-c2ccc(F)cc2)ccn1 [Compound 300] |  |  |  |  |  | 90 | 80 | 2.12
CCC(=O)Nc1cc(-c2cn(C(C)C3CC3)nc2-c2ccc(F)cc2)ccn1 (centres unmarked) [Compound 301] |  |  |  |  |  | 95 | 95 | 2.54
CCC(=O)Nc1cc(-c2cn(CCC#N)nc2-c2ccc(F)cc2)ccn1 [Compound 303] |  |  |  |  |  | 95 | 100 | 1.63
CSCCn1cc(-c2ccnc(NC(=O)C(C)C)c2)c(-c2ccc(F)cc2)n1 [Compound 306] |  |  |  |  |  | 94 | 95 | 2.44
CC(C)C(=O)Nc1cc(-c2cn(C(C)C3CC3)nc2-c2ccc(F)cc2)ccn1 (centres unmarked) [Compound 307] |  |  |  |  |  | 100 | 100 | 2.9
CC(C)C(=O)Nc1cc(-c2cn(CCC#N)nc2-c2ccc(F)cc2)ccn1 [Compound 309] |  |  |  |  |  | 100 | 100 | 1.91
CCC(=O)Nc1cc(-c2cn(C(C)CC#N)nc2-c2ccc(F)cc2)ccn1 (centres unmarked) [Compound 312] |  |  |  |  |  | 100 | 100 | 1.87
COCC(=O)Nc1cc(-c2cn(C(C)CC#N)nc2-c2ccc(F)cc2)ccn1 (centres unmarked) [Compound 313] |  |  |  |  |  | 98 | 95 | 2.17
CC(C)C(=O)Nc1cc(-c2cn(C(C)CC#N)nc2-c2ccc(F)cc2)ccn1 (centres unmarked) [Compound 314] |  |  |  |  |  | 100 | 100 | 1.29
CC(CC#N)n1cc(-c2ccnc(NC(=O)CC3CC3)c2)c(-c2ccc(F)cc2)n1 (centres unmarked) [Compound 315] |  |  |  |  |  | 95 | 95 | 2.28
CCC(=O)Nc1cc(-c2c(-c3ccc(F)cc3)nn(C)c2OC(F)F)ccn1 [Compound 316] |  |  |  |  |  | 75 | 100 | 2.33
CCC(=O)Nc1cc(-c2cn(C3CC3)nc2-c2ccc(F)cc2)ccn1 [Compound 320] |  |  |  |  |  | 94 | 95 | 1.97
CC(C)C(=O)Nc1cc(-c2cn(C3CC3)nc2-c2ccc(F)cc2)ccn1 [Compound 322] |  |  |  |  |  | 95 | 95 | 2.32
